Measured values taken from patent US12097192B2 (Corcept Therapeutics Incorporated, priority 2019, dated 2024).

Key:
[1] = Relacorilant in healthy subjects (human volunteers): tolerability and steady state; type: in vivo
[2] = system: Cushing's syndrome patients; assay: Cushing's syndrome patient study: bone markers; type: in vivo, human; set-up: Serμm Bone Alkaline Phosphatase mean change from Baseline to Last Observed: unit not given here; settings: All Subjects
Description: All patients gave informed consent before participating in any study-related procedures. […] The study protocol called for patient visits to the study site at screening, on Day 1 (baseline), Weeks 2, 4, 6, 8, 10, and 12, and after a 4-week follow-up period for Group 1. For Group 2, the protocol called for patient visits to the study site at screening, on Day 1 (baseline), Weeks 2, 4, 6, 8, 10, 12, 14, and 16, and after a 4-week follow-up period. Patient dosing will be done at home, except on days of study visits. […] It ignores noncompliance, protocol deviations, withdrawal, and anything that happens after randomization. In contrast, per-protocol (PP) analysis refers to inclusion in the analysis of only those patients who strictly adhered to the protocol. The PP analysis provides an estimate of the true efficacy of an intervention, i.e., among those who completed the treatment as planned.

[3] = mITT, Group 1 (100-200 mg/day, 12 weeks)
[4] = mITT, Group 2 (250-400 mg/day, 16 weeks)
[5] = mPP, Group 1 (100-200 mg/day, 12 weeks)
[6] = mPP, Group 2 (250-400 mg/day, 16 weeks)

With Cn1cc(S(=O)(=O)N2CCC3=Cc4c(cnn4-c4ccc(F)cc4)C[C@]3(C(=O)c3cc(C(F)(F)F)ccn3)C2)cn1 [relacorilant, (R)-(1-(4-fluorophenyl)-6-((1-methyl-1H-pyrazol-4-yl)sulfonyl)-4,4a,5,6,7,8-hexahydro-1H-pyrazolo[3,4-g]isoquinolin-4a-yl) (4-(trifluoromethyl)pyridin-2-yl)methanone] the “tolerability of 14 days of dosing” value ([1]; human subjects, 14 days at 50 mg, 150 mg and 250 mg) was “well-tolerated”, the “achievement of steady state levels” value ([1]; human volunteers, daily dosing) was at most 7 days and the “tolerability of single doses” value ([1]; human, in vivo) was “well-tolerated”. The platelet count ([1]; some healthy subjects, non-dose-dependent, resolved by study end) was “transient reduction in platelet count”, the “adverse events at 500 mg” value ([1]; some subjects who received 500-mg relacorilant) was “(non-serious) musculoskeletal adverse events” and the “adverse events with repeat doses” value ([1]; some subjects, repeat doses up to 250 mg) was “mild to moderate musculoskeletal AEs”. The “Serμm Bone Alkaline Phosphatase mean change from Baseline to Last Observed” value [2, 3] was 1.82, the “Serμm Osteocalcin mean change from Baseline to Last Observed” value (shortened to “Serμm Osteocalcin mean change”) [2, 3] was 4.57 µg/L and the “Urinary NTx mean change from Baseline to Last Observed” value (“Urinary NTx mean change from Baseline” for short) [2, 3] was 2.21 nmolBCE/mmol. The “Serμm Bone Alkaline Phosphatase mean change from Baseline to Last Observed” value [2, 4] was −1.09, the “Serμm Osteocalcin mean change” value [2, 4] was 1.33 µg/L and the “Urinary NTx mean change from Baseline” value [2, 4] was 0.63 nmolBCE/mmol. The “Serμm Bone Alkaline Phosphatase mean change from Baseline to Last Observed” value ([2]; mITT, Overall) was 0.41, the “Serμm Osteocalcin mean change” value ([2]; mITT, Overall) was 3 µg/L and the “Urinary NTx mean change from Baseline” value ([2]; mITT, Overall) was 1.37 nmolBCE/mmol. The “Serμm Bone Alkaline Phosphatase mean change from Baseline to Last Observed” value [2, 5] was 1.82, the “Serμm Osteocalcin mean change” value [2, 5] was 4.68 µg/L and the “Urinary NTx mean change from Baseline” value [2, 5] was 2.21 nmolBCE/mmol. For the same compound, the “Serμm Bone Alkaline Phosphatase mean change from Baseline to Last Observed” value [2, 6] was −1.09, the “Serμm Osteocalcin mean change” value [2, 6] was 1.33 µg/L and the “Urinary NTx mean change from Baseline” value [2, 6] was 0.63 nmolBCE/mmol. For the same compound, the “Serμm Bone Alkaline Phosphatase mean change from Baseline to Last Observed” value ([2]; mPP, Overall) was 0.41, the “Serμm Osteocalcin mean change” value ([2]; mPP, Overall) was 3.06 µg/L and the “Urinary NTx mean change from Baseline” value ([2]; mPP, Overall) was 1.37 nmolBCE/mmol.
